Reference: patent US20190077856A1, “METHOD OF TREATING DISEASES USING KINASE MODULATORS” (Memorial Sloan Kettering Cancer Center, priority 2016, published 2019)

Experiments:
JMN [1] = assay: Cell surface HLA-A / HLA-ABC by flow cytometry (BB7, W6/32) after 72 hours; assay type: cell-based, human
Text: 1% DMSO was used as a vehicle control. […] Experimental setup was similar to FIG. 2A.

PC9 = assay: Cell surface HLA-A by flow cytometry (BB7) after 72 hours with inhibitor; assay type: cell-based, human; conditions: PC9, activating EGFR mutation (del E746-A750)
Meso34 [2] = assay: as above; assay type: cell-based, human; conditions: Meso34 without an EGFR mutation, same dose
[3] = system: NSCLC cell lines H827, H1975, H1299, A549; assay: Surface HLA-ABC (MHC-I) on panel of NSCLC cell lines; assay type: cell-based, human; conditions: for surface MHC-I: cell lines that had the sensitizing mutation; for sensitivity to up-regulating surface MHC-I: cell lines with downstream activating RAS mutations
Text: (§1) 1% DMSO was used as a vehicle control. […] Use of ESK antibody to a peptide derived from the oncoprotein WT1 that is presented on HLA-A0201. […] PRAME is a TCRm antibody against an epitope of PRAME tumor antigen presented on HLA-A0201 on SKMEL5. Experimental setup was similar to FIG. 2A. […] FIG. 2D: Use of EGFRi erlotinib and afatanib, along with MEKi trametinib on H827 (EGFR E746del-A750 mutation), H1975 (L858R/T790M), H1299 (EGFR wt, NRAS Q61K), and A549 (EGFR wt/KRAS G12S) to alter surface HLA-ABC levels. Student's t-test was done to compare each treatment to vehicle control. *P values annotated as in FIG. 1E. […] FIG. 2F: H1299 cells were transduced with retroviral vectors expressing EGFR L858R and were analyzed for surface pan HLA-ABC using W6/32. […] The NRAS Q61K mutation was introduced into H827 and cells were treated with EGFRi or MEKi as done in FIG. 2G.
(§2) Small molecule inhibitor studies: Compounds were obtained from SelleckChem (Houston, Tx. USA). Drugs were used at sub-cytostatic doses by titration using the Cell Titer Glo assay (Promega). All drugs were used in vitro at indicated doses in 1% dimethyl sulfoxide (DMSO).
The mechanism by which the MAP kinase pathway suppresses levels of HLA-A is unknown. Given that many cancers have activating mutations in specific genes in the MAP kinase pathway, inhibition of the identified hits was investigated in cell lines harboring mutations in EGFR, or downstream in Ras. A panel of NSCLC cell lines with activating mutations in EGFR, such as the delE746-A750 in H827, or L858R/T790M mutation in H1975, was utilized. The delE746-A750 confers sensitivity to erlotinib, whereas the T790M confers resistance to erlotinib and other first generation EGFR inhibitors, but is sensitive to afatanib (Cross et al., 2014, Cancer Discov 4(9):1046-61). EGFR wild type NSCLC lines with downstream mutations, such as activating NRAS Q61K in H1299 or KRAS G12S in A549, were also utilized.

H827 = conditions: similar level of suppression of pERK
Text: as §1, §2

HLA-A and B2M protein = conditions: erlotinib (EGFRi), 72 hours
Text: The HLA-A and B2M promoter was cloned upstream of the Gaussian Luciferase (GLuc) gene. Secreted embryonic alkaline phosphatase (SEAP) under the CMV promoter was used as a normalization factor.

JMN [4] = assay: ADCC assay (51Cr release) with TCR mimic antibody ESKM after trametinib; assay type: cell-based, human; conditions: 72 hours trametinib, non-cytotoxic dose
Protocol: (§3) Cells were incubated for 72 hours with either vehicle control or trametinib and subsequently exposed to either isotype antibody or ESKM in ADCC assay. FIG. 3B depicts an ADCC assay on Meso34 (human mesothelioma). The experimental setup was similar to FIG. 3A. FIG. 3C depicts an ADCC assay on SKMEL5 (human melanoma) using TCRm mAb PRAME against the PRAME epitope; the experimental setup was similar to FIG. 3A. FIG. 3D: B16F10 cells were exposed to pmel-1 (gp100) specific TCR T-cells for 24 hours, then killing was assessed using a clonogenic assay described previously (Budhu et al. 2010, J Exp Med 207:223-235)
(§4) ADCC: The HLA-A*02:01 positive mesothelioma cell lines JMN and Meso34, along with the melanoma cell line SK-MELS were used in the ADCC assay as a target (May et al. 2007, Clin Cancer Res 13:4547-4555) . Antibodies ESKM (Veomett et al., 2014, Clin Cancer Res 20(15):4036-4046), PRAME, or its isotype control hIgG1 at 3 ug/ml were incubated with target cells and fresh healthy donor PBMCs at different effector/target ratios for 6 hours, along with indicated doses of vehicle or trametinib in RPMI (Roswell Park Memorial Institute medium) supplemented with 10% fetal bovine serum (FBS). The supernatant was harvested, and the cytotoxicity was measured by a ^51Cr release assay (Perkin Elmer).

Meso34 [5] = assay: as above; assay type: cell-based, human; conditions: 72 hours trametinib, non-cytotoxic dose
Protocol: as §3, §4

SK-MEL-5 = assay: ADCC assay (51Cr release) with TCR mimic mAb Pr20m (PRAME) after trametinib; assay type: cell-based, human
Protocol: as §3, §4

pERK = assay: Titration of MEK inhibition by western blot for pERK and ERK; assay type: cell-based, human; conditions: JMN and Meso34 cells; time=1 hour
Text: (§5) It was hypothesized that the inhibition of the MAP kinase pathway might act on other components of the antigen presentation machinery in addition to MHC-I molecules, thus allowing increased epitope expression in the more abundant cell surface HLA molecules.

JMN [6] = assay: Time course of MEK inhibition and HLA-A / B2M protein, western blot; assay type: cell-based, human; conditions: 50 nM trametinib
Protocol: FIG. 11: JMN was treated with 50 nM trametinib and lysate was analyzed as in FIG. 4C at different time points.
as §5

## CN(C)C/C=C/C(=O)Nc1cc2c(Nc3ccc(F)c(Cl)c3)ncnc2cc1O[C@H]1CCOC1 [afatanib]
JMN [1]; 72 hours, BB7 binding
  HLA-A up-regulation response: responded
PC9
  HLA-A up-regulation response: responded
Meso34 [2]
  HLA-A up-regulation response: did not respond
[3]
  surface MHC-I: up-regulated
  sensitivity to up-regulating surface MHC-I: not observed

## C#Cc1cccc(Nc2ncnc3cc(OCCOC)c(OCCOC)cc23)c1 [erlotinib]
[3]
  surface MHC-I: up-regulated
  sensitivity to up-regulating surface MHC-I: not observed
H827
  surface MHC-I response compared with MEKi by trametinib: responded more strongly
HLA-A and B2M protein
  HLA-A and B2M protein: dose dependent increase

## CC(=O)Nc1cccc(-n2c(=O)n(C3CC3)c(=O)c3c(Nc4ccc(I)cc4F)n(C)c(=O)c(C)c32)c1 [trametinib]
JMN [4]
  cytotoxicity of ESKM (ADCC): increased
Meso34 [5]
  cytotoxicity of ESKM (ADCC): increased
SK-MEL-5
  increased cytotoxicity of Pr20m mAb (ADCC): also observed
pERK
  dose to which cells were sensitive (pERK inhibition): less than 10 nM
JMN [6]
  time of maximal increases of HLA-A and B2M: 72 h
  time of maximal inhibition of MEK: 3 h

## EGF: epidermal growth factor, EGF protein that turns on EGFR (NSDSECPLSHDGYCLHDGVCMYIEALDKYACNCVVGYIGERCQYRDLKWWELR; Epidermal growth factor; UniProt P01133 971-1023, looked up)
JMN [1]; 10 nM EGF for 72 hours
  surface HLA-A: suppressed
  surface HLA-A,B,C: suppressed
